Reference: US7365096B2, “Methods for selectively inhibiting Janus tyrosine kinase 3 (Jak3)” (Board of Regents, The University of Texas System, priority 2002, dated 2008)

Tests used:
[1] = tested on: LEW donor or third-party BUF heart allografts; test: Transplantation tolerance: heart allograft challenge of long-term surviving recipients; assay type: in vivo, rat; details: recipients made tolerant with NC1153; n=3
Method: (§1) ACI rat recipients of LEW kidney allografts were treated for 14 days with NC1153 delivered by daily oral gavage. […] ACI rat recipients of LEW kidney allografts were treated for 7 days and thereafter 3×/week up to 90 days with 160 mg/kg NC1153 delivered by daily oral gavage. […] The mechanism of tolerance was examined when irradiated (400 rads) ACI recipients of LEW heart allografts were adoptively transferred with 30×10^6 purified T cells from tolerant recipients.

[2] = target: Fyn (Homo sapiens, UniProt P06241); test: Kinase substrate phosphorylation (FIG. 9C); assay type: biochemical; details: 10 or 50 μM
Method: (§2) Non-Jak3 mediated NfκB activation by TNF-α was not affected within the same treatment set (lower panel). […] Prolactin [PRL] (+) or (−) indicates whether the cells were stimulated with prolactin with Jak2 activation. Phosphotyrosine Western blots detect Jak2-Stat5 activation but no inhibition by 649641P (NC1153). […] 649641P (NC1153) was tested at 10 (open bars) or 50 μM (filled bars) to block growth factor tyrosine kinases (FGFR3 and PDGFRα), Src family tyrosine kinases (Src, Fyn, Lck, Yes, Zap70) or serine threonine kinases (PKC and PKA) phosphorylation of a substrate. The activity of the control is plotted as a dashed line.
(§3) In FIG. 9A, it can be seen that NC1153 inhibits Jak3 driven transcription factor-Stat5a/b in PHA activated T-cells treated with increasing concentrations of NC1153 in a dose dependent manner as measured via EMSA analysis (upper panel). The lane identified as “cold compete” contains unlabeled probe. However, non-Jak3 mediated NfκB activation (lower panel) by TNF-α was not affected within the same treatment set. […] Rat Nb2 cells were treated with increasing concentration of NC1153 and then stimulated with prolactin. Phosphotyrosine Western blots detect activation but no inhibition by NC1153. […] Activity of the control is plotted as a dashed line.

[3] = target: Lck (Homo sapiens, UniProt P06239); test: Kinase substrate phosphorylation (FIG. 9C); assay type: biochemical; details: 10 or 50 μM
Method: as §2, §3

[4] = target: Yes (Homo sapiens, UniProt P07947); test: Kinase substrate phosphorylation (FIG. 9C); assay type: biochemical; details: 10 or 50 μM
Method: as §2, §3

[5] = tested on: PKC; test: Kinase substrate phosphorylation (FIG. 9C); assay type: biochemical; details: 10 or 50 μM
Method: as §2, §3

[6] = tested on: PKA; test: Kinase substrate phosphorylation (FIG. 9C); assay type: biochemical; details: 10 or 50 μM
Method: as §2, §3

[7] = target: T1, Zap70 (Homo sapiens, UniProt P43403); test: Kinase substrate phosphorylation (FIG. 9C); assay type: biochemical; details: 10 or 50 μM
T1 sequence (P43403 1-619): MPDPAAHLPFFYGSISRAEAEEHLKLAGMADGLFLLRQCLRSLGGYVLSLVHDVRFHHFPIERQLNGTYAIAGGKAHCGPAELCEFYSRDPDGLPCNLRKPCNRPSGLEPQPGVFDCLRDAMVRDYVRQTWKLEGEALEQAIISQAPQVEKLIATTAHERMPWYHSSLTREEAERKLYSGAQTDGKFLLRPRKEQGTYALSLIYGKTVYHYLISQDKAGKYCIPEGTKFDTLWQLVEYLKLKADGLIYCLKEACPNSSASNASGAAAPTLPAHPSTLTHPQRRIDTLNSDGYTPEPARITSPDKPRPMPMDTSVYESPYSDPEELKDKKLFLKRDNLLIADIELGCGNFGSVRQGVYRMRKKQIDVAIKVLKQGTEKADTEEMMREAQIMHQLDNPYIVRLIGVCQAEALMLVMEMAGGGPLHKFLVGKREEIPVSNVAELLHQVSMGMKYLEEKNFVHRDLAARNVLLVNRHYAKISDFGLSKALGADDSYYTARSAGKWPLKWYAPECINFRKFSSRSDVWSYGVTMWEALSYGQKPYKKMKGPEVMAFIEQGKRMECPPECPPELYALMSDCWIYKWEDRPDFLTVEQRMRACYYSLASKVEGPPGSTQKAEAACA
Method: as §2, §3

[8] = target: Src (Homo sapiens, UniProt P12931); test: Kinase substrate phosphorylation (FIG. 9C); assay type: biochemical; details: 10 or 50 μM
Method: as §2, §3

[9] = target: FGFR3 (Homo sapiens, UniProt P22607); test: Kinase substrate phosphorylation (FIG. 9C); assay type: biochemical; details: 10 or 50 μM
Method: as §2, §3

[10] = target: PDGFRα (Homo sapiens, UniProt P16234); test: Kinase substrate phosphorylation (FIG. 9C); assay type: biochemical; details: 10 or 50 μM
Method: as §2, §3

[11] = tested on: LEW or third-party heart allografts; test: Adoptive transfer of T cells from tolerant recipients into irradiated ACI heart allograft recipients; assay type: in vivo, rat
Method: as §1

[12] = Oral bioavailability estimated from allograft survival p.o. versus i.v.; details: ACI, rat, in vivo, 80 mg/kg p.o. gave similar survivals as 10 mg/kg i.v.
Method: To test the in vivo effects, recipients of kidney allografts were treated with 649641P (NC1153) for 7 days beginning immediately after transplantation. […] A mean survival time (MST) and SD was calculated for each group from 5-6 experiments.

Chain of Src (P12931 whole entry, species assumed): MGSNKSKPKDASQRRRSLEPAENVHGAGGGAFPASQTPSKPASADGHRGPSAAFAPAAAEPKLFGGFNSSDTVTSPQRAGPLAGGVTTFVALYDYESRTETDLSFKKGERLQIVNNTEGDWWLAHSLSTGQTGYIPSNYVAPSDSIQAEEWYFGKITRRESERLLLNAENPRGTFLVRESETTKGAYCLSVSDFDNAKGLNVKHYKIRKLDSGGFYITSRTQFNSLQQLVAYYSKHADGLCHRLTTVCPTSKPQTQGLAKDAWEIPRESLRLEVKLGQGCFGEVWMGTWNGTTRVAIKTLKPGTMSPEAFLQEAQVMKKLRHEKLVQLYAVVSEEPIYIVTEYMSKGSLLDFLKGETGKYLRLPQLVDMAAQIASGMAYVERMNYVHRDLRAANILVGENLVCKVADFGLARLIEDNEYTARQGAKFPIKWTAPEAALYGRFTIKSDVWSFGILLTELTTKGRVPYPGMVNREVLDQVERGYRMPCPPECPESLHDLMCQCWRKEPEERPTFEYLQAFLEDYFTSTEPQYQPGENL
Chain of PDGFRα (P16234 24-1089, species assumed): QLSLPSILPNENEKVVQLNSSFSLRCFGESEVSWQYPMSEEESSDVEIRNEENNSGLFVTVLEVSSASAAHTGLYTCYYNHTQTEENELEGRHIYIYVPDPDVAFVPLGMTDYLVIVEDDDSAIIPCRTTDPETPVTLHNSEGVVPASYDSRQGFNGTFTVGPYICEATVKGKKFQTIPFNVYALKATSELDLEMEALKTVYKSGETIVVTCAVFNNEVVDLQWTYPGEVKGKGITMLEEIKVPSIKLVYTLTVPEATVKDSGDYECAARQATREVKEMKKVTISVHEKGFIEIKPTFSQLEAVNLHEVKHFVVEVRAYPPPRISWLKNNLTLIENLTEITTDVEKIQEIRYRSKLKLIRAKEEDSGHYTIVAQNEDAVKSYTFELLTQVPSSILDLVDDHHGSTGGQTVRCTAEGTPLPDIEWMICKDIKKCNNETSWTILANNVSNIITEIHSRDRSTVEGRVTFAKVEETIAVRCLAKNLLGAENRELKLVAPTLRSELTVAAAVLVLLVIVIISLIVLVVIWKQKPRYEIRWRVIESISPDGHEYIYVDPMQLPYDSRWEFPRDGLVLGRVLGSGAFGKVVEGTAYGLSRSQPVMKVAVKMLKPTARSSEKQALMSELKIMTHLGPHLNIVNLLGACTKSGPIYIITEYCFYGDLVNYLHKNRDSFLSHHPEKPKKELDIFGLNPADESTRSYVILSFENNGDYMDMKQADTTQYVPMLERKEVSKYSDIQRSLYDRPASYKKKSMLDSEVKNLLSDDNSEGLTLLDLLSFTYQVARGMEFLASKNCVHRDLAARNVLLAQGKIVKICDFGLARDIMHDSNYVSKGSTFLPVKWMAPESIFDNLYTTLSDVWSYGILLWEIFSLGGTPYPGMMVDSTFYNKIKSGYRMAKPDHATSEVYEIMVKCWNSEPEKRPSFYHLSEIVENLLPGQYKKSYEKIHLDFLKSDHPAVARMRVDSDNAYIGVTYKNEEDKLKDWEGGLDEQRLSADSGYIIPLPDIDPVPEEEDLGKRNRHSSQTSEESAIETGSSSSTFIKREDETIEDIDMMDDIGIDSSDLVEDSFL
Chain of Lck (P06239 whole entry, species assumed): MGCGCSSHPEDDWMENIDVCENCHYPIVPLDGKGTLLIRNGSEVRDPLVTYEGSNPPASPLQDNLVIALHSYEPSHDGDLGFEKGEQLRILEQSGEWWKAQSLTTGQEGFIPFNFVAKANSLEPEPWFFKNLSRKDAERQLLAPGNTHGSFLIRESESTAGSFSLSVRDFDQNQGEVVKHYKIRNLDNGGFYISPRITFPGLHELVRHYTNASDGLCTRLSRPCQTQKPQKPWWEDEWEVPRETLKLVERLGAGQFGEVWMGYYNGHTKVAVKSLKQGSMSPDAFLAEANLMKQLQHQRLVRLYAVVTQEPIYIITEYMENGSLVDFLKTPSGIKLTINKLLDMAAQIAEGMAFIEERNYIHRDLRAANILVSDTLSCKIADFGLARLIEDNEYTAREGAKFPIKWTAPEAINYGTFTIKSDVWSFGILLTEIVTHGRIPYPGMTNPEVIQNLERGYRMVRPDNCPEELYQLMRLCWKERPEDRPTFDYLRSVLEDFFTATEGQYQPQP
Chain of Fyn (P06241 whole entry, species assumed): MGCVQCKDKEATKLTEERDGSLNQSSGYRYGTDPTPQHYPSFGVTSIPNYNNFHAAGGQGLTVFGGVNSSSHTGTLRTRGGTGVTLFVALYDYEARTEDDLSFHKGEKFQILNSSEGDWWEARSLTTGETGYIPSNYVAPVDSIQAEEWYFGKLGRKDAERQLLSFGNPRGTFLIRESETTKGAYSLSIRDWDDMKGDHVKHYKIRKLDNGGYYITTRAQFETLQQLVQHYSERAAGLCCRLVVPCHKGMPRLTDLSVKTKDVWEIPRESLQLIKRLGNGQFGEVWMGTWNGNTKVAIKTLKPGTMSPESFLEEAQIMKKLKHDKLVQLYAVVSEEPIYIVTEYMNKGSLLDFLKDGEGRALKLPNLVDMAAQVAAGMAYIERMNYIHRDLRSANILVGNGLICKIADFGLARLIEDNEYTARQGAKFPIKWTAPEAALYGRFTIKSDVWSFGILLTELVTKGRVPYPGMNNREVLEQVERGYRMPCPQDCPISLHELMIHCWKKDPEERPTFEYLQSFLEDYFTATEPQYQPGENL
Chain of FGFR3 (P22607 23-806, species assumed): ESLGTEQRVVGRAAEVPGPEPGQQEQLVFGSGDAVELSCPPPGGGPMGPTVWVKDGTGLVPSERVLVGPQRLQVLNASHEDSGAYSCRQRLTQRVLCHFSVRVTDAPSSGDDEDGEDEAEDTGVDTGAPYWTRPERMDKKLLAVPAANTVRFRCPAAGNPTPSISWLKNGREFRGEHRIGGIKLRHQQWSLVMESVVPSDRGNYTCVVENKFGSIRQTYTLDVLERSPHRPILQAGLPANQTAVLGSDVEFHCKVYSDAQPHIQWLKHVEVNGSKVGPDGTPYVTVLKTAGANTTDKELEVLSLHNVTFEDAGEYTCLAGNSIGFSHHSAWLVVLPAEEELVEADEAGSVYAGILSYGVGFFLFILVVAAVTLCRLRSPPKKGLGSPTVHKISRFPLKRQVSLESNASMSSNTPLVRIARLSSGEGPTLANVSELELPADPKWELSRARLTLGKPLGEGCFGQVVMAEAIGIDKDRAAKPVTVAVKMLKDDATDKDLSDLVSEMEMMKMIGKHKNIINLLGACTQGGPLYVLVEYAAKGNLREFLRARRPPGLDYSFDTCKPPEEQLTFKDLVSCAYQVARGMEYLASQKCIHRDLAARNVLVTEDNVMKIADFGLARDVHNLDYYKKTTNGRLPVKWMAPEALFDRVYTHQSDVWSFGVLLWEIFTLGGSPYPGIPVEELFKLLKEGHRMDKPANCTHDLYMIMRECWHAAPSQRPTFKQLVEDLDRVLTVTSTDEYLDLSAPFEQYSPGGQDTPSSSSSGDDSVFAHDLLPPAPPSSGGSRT
Chain of Yes (P07947 whole entry, species assumed): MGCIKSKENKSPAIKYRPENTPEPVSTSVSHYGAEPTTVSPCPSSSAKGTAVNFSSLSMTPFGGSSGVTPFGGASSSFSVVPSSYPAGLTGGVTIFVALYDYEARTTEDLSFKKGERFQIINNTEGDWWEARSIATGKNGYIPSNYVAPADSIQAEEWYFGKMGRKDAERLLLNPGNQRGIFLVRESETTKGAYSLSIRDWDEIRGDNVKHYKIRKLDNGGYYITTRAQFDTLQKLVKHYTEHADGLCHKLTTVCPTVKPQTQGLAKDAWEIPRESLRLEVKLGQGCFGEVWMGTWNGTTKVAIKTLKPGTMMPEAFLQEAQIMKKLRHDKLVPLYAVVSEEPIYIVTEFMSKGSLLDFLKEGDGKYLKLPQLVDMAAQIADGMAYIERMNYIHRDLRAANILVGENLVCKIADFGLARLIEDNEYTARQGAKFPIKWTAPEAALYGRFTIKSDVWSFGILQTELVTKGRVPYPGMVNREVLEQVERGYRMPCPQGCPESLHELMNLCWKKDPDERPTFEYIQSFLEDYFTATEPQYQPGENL

CN(C)CC1CCCCCCCCCC(CN(C)C)C1=O (mixture of isomers) [649641P (NC1153)]
survival of LEW donor heart allografts in long-term surviving recipients [1]: > 100 days | survival of third-party BUF heart allografts in long-term surviving recipients [1]: 7.0±1.0 days | Fyn phosphorylation of a substrate [2]: fails to affect the activity | Fyn phosphorylation of a substrate ([2]; listed as NC1153): fails to affect activity | Lck phosphorylation of a substrate [3]: fails to affect the activity | Lck phosphorylation of a substrate ([3]; listed as NC1153): fails to affect activity | Yes phosphorylation of a substrate [4]: fails to affect the activity | Yes phosphorylation of a substrate ([4]; listed as NC1153): fails to affect activity | PKC phosphorylation of a substrate [5]: fails to affect the activity | PKC phosphorylation of a substrate ([5]; listed as NC1153): fails to affect activity | PKA phosphorylation of a substrate [6]: fails to affect the activity | PKA phosphorylation of a substrate ([6]; listed as NC1153): fails to affect activity | Zap70 phosphorylation of a substrate [7]: fails to affect the activity | Zap70 phosphorylation of a substrate ([7]; listed as NC1153): fails to affect activity | Src phosphorylation of a substrate [8]: fails to affect the activity | Src phosphorylation of a substrate ([8]; listed as NC1153): fails to affect activity | FGFR3 phosphorylation of a substrate [9]: fails to affect the activity | FGFR3 phosphorylation of a substrate ([9]; listed as NC1153): fails to affect activity | PDGFRα phosphorylation of a substrate [10]: fails to affect the activity | PDGFRα phosphorylation of a substrate ([10]; listed as NC1153): fails to affect activity | rejection of LEW heart allografts after transfer of tolerant T cells ([11]; irradiated (400 rads) ACI recipients, 30×10^6 T cells from NC1153-tolerant recipients, irradiated controls 15±1.0): 40.0±15.0 days | rejection of third-party heart allografts after transfer of tolerant T cells ([11]; irradiated ACI recipients, T cells from NC1153-tolerant recipients, n=2): 12±1.0 days | bioavailability [12]: ~12.5%
